Laboratory results taken from US9040516B2, “Uracil derivative and use thereof for medical purposes” (SUMITOMO DAINIPPON PHARMA CO., LTD., priority 2011, dated 2015).

Assays:
[1] = target: T1, human neutrophil elastase (Homo sapiens, UniProt P08246); test: Inhibitory action 2 against human neutrophil elastase (Test Example 2; fluorogenic substrate MeOSuc-AAPV-AMC, buffer with 400 mM NaCl, 0.2 mg/ml BSA); type: biochemical; details: 37° C., read-out: IC50 value (compound concentration required for 50% inhibition of human neutrophil elastase)
T1 construct: purchased Elastin Products Company
T1 sequence (P08246 30-267): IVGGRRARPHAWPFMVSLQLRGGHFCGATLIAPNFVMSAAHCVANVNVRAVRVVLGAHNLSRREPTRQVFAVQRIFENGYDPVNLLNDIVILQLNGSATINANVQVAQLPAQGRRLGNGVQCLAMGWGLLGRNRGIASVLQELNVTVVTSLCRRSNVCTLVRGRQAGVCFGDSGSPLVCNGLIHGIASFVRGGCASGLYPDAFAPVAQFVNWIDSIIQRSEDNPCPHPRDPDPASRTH
How it was run: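 HNE (0.4 unit/ml in buffer) preincubated 5 min at 37° C with compound in 200 mM HEPES pH 7.5, 400 mM NaCl, 0.2 mg/ml BSA; reaction started with MeOSuc-AAPV-AMC (0.5 mM stock) and run 5 min at 37° C. AMC fluorescence (ex 380, em 460 nm) gave percent inhibition.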

| IC50 [1] [nM] | melting point [°C] | Structure (SMILES) |
| --- | --- | --- |
| 14.5 | 263 | Cc1c(-c2c(C(N)=O)cnn2-c2ccc(C#N)cc2)c(=O)n(C)c(=O)n1-c1cccc(C(F)(F)F)c1 [Example 148] |
| 12.6 | 227 | Cc1c(-c2c(C(=O)N3CCCC3)cnn2-c2ccc(C#N)cc2)c(=O)n(C)c(=O)n1-c1cccc(C(F)(F)F)c1 [Example 162] |
| 11 | 226 | Cc1c(-c2ccnn2-c2ccc(C#N)cc2)c(=O)n(C(C)C(N)=O)c(=O)n1-c1cccc(C(F)(F)F)c1 (stereo not drawn) [Example 377] |
